Assay results taken from ChEMBL document CHEMBL1201862, “PubChem BioAssay data set” (2004).
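How tested: cells in 96-well plates exposed to compound for 48 hours at five concentrations. GI50 marks 50% less growth.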 Calls of active or inactive are those of the source. Cut-off read from the data, not from the text of the source: active = GI50 up to about 1.1 µM and inactive = higher.

Tests used:
Assay in all cases: NCI tumour cell line growth inhibition, 48 h
HOP-92 = tested on: HOP-92
DU-145 = tested on: DU-145
NCI-H460 = tested on: NCI-H460
OVCAR-3 = tested on: OVCAR-3
HT-29 = tested on: HT-29
HL-60 = tested on: HL-60
MCF7 = tested on: MCF7
KM12 = tested on: KM12
MDA-MB-435 = tested on: MDA-MB-435
K562 = tested on: K562
RPMI-8226 = tested on: RPMI-8226
A498 = tested on: A498
NCI-H522 = tested on: NCI-H522
MDA-N = tested on: MDA-N
SW-620 = tested on: SW-620
OVCAR-5 = tested on: OVCAR-5
SF-295 = tested on: SF-295
SR = tested on: SR
SNB-19 = tested on: SNB-19
TK-10 = tested on: TK-10
RXF 393 = tested on: RXF 393
U-251 = tested on: U-251
EKVX = tested on: EKVX
IGROV-1 = tested on: IGROV-1
Malme-3M = tested on: Malme-3M
T47D = tested on: T47D
SF-539 = tested on: SF-539
HCT-116 = tested on: HCT-116
OVCAR-4 = tested on: OVCAR-4
NCI/ADR-RES = tested on: NCI/ADR-RES
SK-MEL-28 = tested on: SK-MEL-28
SF-268 = tested on: SF-268
UACC-62 = tested on: UACC-62
A549 = tested on: A549
PC-3 = tested on: PC-3
MOLT-4 = tested on: MOLT-4
BT-549 = tested on: BT-549
SN12C = tested on: SN12C
HOP-62 = tested on: HOP-62
LOX IMVI = tested on: LOX IMVI
UACC-257 = tested on: UACC-257
HCT-15 = tested on: HCT-15
NCI-H23 = tested on: NCI-H23
M14 = tested on: M14
CCRF-CEM = tested on: CCRF-CEM
ACHN = tested on: ACHN
UO-31 = tested on: UO-31
NCI-H226 = tested on: NCI-H226
Hs-578T = tested on: Hs-578T
786-0 = tested on: 786-0
HCC 2998 = tested on: HCC 2998
SNB-75 = tested on: SNB-75
SK-OV-3 = tested on: SK-OV-3
SK-MEL-5 = tested on: SK-MEL-5
COLO 205 = tested on: COLO 205
MDA-MB-231 = tested on: MDA-MB-231
OVCAR-8 = tested on: OVCAR-8
SK-MEL-2 = tested on: SK-MEL-2
CAKI-1 = tested on: CAKI-1

O=C(CNc1ccc(Cl)cc1Cl)Nn1c(-c2ccccc2)nc2ccccc2c1=O
GI50 (HOP-92): 4.33 µM (inactive)
GI50 (DU-145): 14.5 µM (inactive)
GI50 (NCI-H460): 15.7 µM (inactive)
GI50 (OVCAR-3): 17 µM (inactive)
GI50 (HT-29): 16.1 µM (inactive)
GI50 (HL-60): 20 µM (inactive)
GI50 (MCF7): 13.4 µM (inactive)
GI50 (KM12): > 10 µM (inactive)
GI50 (MDA-MB-435): 14.9 µM (inactive)
GI50 (K562): 10.2 µM (inactive)
GI50 (RPMI-8226): 21.3 µM (inactive)
GI50 (A498): > 10 µM (inactive)
GI50 (NCI-H522): 12 µM (inactive)
GI50 (MDA-N): 15.9 µM (inactive)
GI50 (SW-620): 16.2 µM (inactive)
GI50 (OVCAR-5): 23 µM (inactive)
GI50 (SF-295): 14.9 µM (inactive)
GI50 (SR): 13.9 µM (inactive)
GI50 (SNB-19): 18.5 µM (inactive)
GI50 (TK-10): 19.5 µM (inactive)
GI50 (RXF 393): 18.9 µM (inactive)
GI50 (U-251): > 10 µM (inactive)
GI50 (EKVX): 19.2 µM (inactive)
GI50 (IGROV-1): 15.2 µM (inactive)
GI50 (Malme-3M): 18.2 µM (inactive)
GI50 (T47D): 14.6 µM (inactive)
GI50 (SF-539): 19.6 µM (inactive)
GI50 (HCT-116): 16.7 µM (inactive)
GI50 (OVCAR-4): 13.9 µM (inactive)
GI50 (NCI/ADR-RES): 20.3 µM (inactive)
GI50 (SK-MEL-28): 21.1 µM (inactive)
GI50 (SF-268): 3.86 µM (inactive)
GI50 (UACC-62): 3.34 µM (inactive)
GI50 (A549): 30.5 µM (inactive)
GI50 (PC-3): 14.9 µM (inactive)
GI50 (MOLT-4): 5.14 µM (inactive)
GI50 (BT-549): 16.3 µM (inactive)
GI50 (SN12C): 16.1 µM (inactive)
GI50 (HOP-62): > 10 µM (inactive)
GI50 (LOX IMVI): 9.95 µM (inactive)
GI50 (UACC-257): 21.6 µM (inactive)
GI50 (HCT-15): 19.1 µM
GI50 (NCI-H23): 12.6 µM (inactive)
GI50 (M14): 13.7 µM (inactive)
GI50 (CCRF-CEM): 2.9 µM (inactive)
GI50 (ACHN): 17.6 µM (inactive)
GI50 (UO-31): 22.4 µM (inactive)
GI50 (NCI-H226): 33.8 µM (inactive)
GI50 (Hs-578T): 23.9 µM (inactive)
GI50 (786-0): 16.8 µM (inactive)
GI50 (HCC 2998): 17.7 µM (inactive)
GI50 (SNB-75): 15.3 µM (inactive)
GI50 (SK-OV-3): 28.2 µM (inactive)
GI50 (SK-MEL-5): 5.94 µM (inactive)
GI50 (COLO 205): 11.1 µM (inactive)
GI50 (MDA-MB-231): 14.8 µM (inactive)
GI50 (OVCAR-8): 35 µM (inactive)

O=c1oc2c([N+](=O)[O-])cc([N+](=O)[O-])cc2c2ccccc12
GI50 (HOP-92): > 100 µM (inactive)
GI50 (DU-145): > 100 µM (inactive)
GI50 (NCI-H460): > 100 µM (inactive)
GI50 (OVCAR-3): > 100 µM (inactive)
GI50 (HT-29): > 100 µM (inactive)
GI50 (HL-60): > 100 µM (inactive)
GI50 (MCF7): > 100 µM (inactive)
GI50 (MDA-MB-435): > 100 µM (inactive)
GI50 (K562): > 100 µM (inactive)
GI50 (RPMI-8226): > 100 µM (inactive)
GI50 (A498): > 100 µM (inactive)
GI50 (NCI-H522): > 100 µM (inactive)
GI50 (MDA-N): > 100 µM (inactive)
GI50 (SW-620): > 100 µM (inactive)
GI50 (OVCAR-5): > 100 µM (inactive)
GI50 (SF-295): > 100 µM (inactive)
GI50 (SR): > 100 µM (inactive)
GI50 (SNB-19): > 100 µM (inactive)
GI50 (TK-10): > 100 µM (inactive)
GI50 (RXF 393): > 100 µM (inactive)
GI50 (U-251): > 100 µM (inactive)
GI50 (EKVX): > 100 µM (inactive)
GI50 (IGROV-1): > 100 µM (inactive)
GI50 (Malme-3M): > 100 µM (inactive)
GI50 (T47D): > 100 µM (inactive)
GI50 (SF-539): > 100 µM (inactive)
GI50 (HCT-116): > 100 µM (inactive)
GI50 (OVCAR-4): > 100 µM (inactive)
GI50 (NCI/ADR-RES): > 100 µM (inactive)
GI50 (SK-MEL-28): > 100 µM (inactive)
GI50 (SF-268): > 100 µM (inactive)
GI50 (UACC-62): > 100 µM (inactive)
GI50 (A549): > 100 µM (inactive)
GI50 (PC-3): > 100 µM (inactive)
GI50 (MOLT-4): > 100 µM (inactive)
GI50 (BT-549): 59.6 µM (inactive)
GI50 (SN12C): > 100 µM (inactive)
GI50 (SK-MEL-2): > 100 µM (inactive)
GI50 (HOP-62): > 100 µM (inactive)
GI50 (LOX IMVI): > 100 µM (inactive)
GI50 (CAKI-1): > 100 µM (inactive)
GI50 (UACC-257): > 100 µM (inactive)
GI50 (HCT-15): > 100 µM
GI50 (NCI-H23): > 100 µM (inactive)
GI50 (M14): > 100 µM (inactive)
GI50 (CCRF-CEM): > 100 µM (inactive)
GI50 (ACHN): > 100 µM (inactive)
GI50 (NCI-H226): > 100 µM (inactive)
GI50 (Hs-578T): > 100 µM (inactive)
GI50 (786-0): > 100 µM (inactive)
GI50 (HCC 2998): > 100 µM (inactive)
GI50 (SNB-75): > 100 µM (inactive)
GI50 (SK-MEL-5): > 100 µM (inactive)
GI50 (COLO 205): > 100 µM (inactive)
GI50 (MDA-MB-231): > 100 µM (inactive)
GI50 (OVCAR-8): > 100 µM (inactive)

O=c1oc2c/c(=C\c3ccccc3)c(=O)c3cccc1c3-2
GI50 (HOP-92): 19.6 µM (inactive)
GI50 (DU-145): 51.1 µM (inactive)
GI50 (NCI-H460): 74.5 µM (inactive)
GI50 (OVCAR-3): 23.6 µM (inactive)
GI50 (HT-29): 55.6 µM (inactive)
GI50 (HL-60): 27.1 µM (inactive)
GI50 (MCF7): > 10 µM (inactive)
GI50 (KM12): 24.9 µM (inactive)
GI50 (MDA-MB-435): 21.4 µM (inactive)
GI50 (RPMI-8226): 36.2 µM (inactive)
GI50 (A498): > 100 µM (inactive)
GI50 (NCI-H522): 22.8 µM (inactive)
GI50 (MDA-N): 20.8 µM (inactive)
GI50 (SW-620): 25.1 µM (inactive)
GI50 (OVCAR-5): 61.7 µM (inactive)
GI50 (SF-295): > 100 µM (inactive)
GI50 (SR): 28.8 µM (inactive)
GI50 (SNB-19): 31.8 µM (inactive)
GI50 (TK-10): > 100 µM (inactive)
GI50 (RXF 393): 32.5 µM (inactive)
GI50 (U-251): 18.6 µM (inactive)
GI50 (EKVX): 75.3 µM (inactive)
GI50 (IGROV-1): 23 µM (inactive)
GI50 (Malme-3M): 24.2 µM (inactive)
GI50 (T47D): 27.3 µM (inactive)
GI50 (SF-539): 31.5 µM (inactive)
GI50 (HCT-116): 25.7 µM (inactive)
GI50 (NCI/ADR-RES): 33.7 µM (inactive)
GI50 (SK-MEL-28): 36.1 µM (inactive)
GI50 (SF-268): 24.1 µM (inactive)
GI50 (UACC-62): 24.5 µM (inactive)
GI50 (A549): > 100 µM (inactive)
GI50 (PC-3): 56 µM (inactive)
GI50 (BT-549): 28.3 µM (inactive)
GI50 (SN12C): 47.6 µM (inactive)
GI50 (HOP-62): 19.9 µM (inactive)
GI50 (LOX IMVI): 19.7 µM (inactive)
GI50 (CAKI-1): 24.1 µM (inactive)
GI50 (UACC-257): 31.7 µM (inactive)
GI50 (HCT-15): 36.6 µM
GI50 (NCI-H23): 36.7 µM (inactive)
GI50 (M14): 22.4 µM (inactive)
GI50 (ACHN): > 100 µM (inactive)
GI50 (UO-31): 30.1 µM (inactive)
GI50 (NCI-H226): 31.7 µM (inactive)
GI50 (Hs-578T): 14.8 µM (inactive)
GI50 (786-0): 22.8 µM (inactive)
GI50 (HCC 2998): > 100 µM (inactive)
GI50 (SNB-75): 41.4 µM (inactive)
GI50 (SK-OV-3): > 100 µM (inactive)
GI50 (SK-MEL-5): > 10 µM (inactive)
GI50 (COLO 205): 37.3 µM (inactive)
GI50 (MDA-MB-231): 31.7 µM (inactive)
GI50 (OVCAR-8): 19.8 µM (inactive)
